In patent publication US5547962A, “5-amino-8-methyl-7-pyrrolidinylquinoline-3-carboxylic acid derivative” (priority 1993, dated 1996):
In brackets after ≈: the same amount, converted by molar mass. Entries after “also recorded” stand apart in the source; their conditions may differ. Like-named read-outs stand apart in the source and are kept apart here.

Experiments:
Male Hartley guinea pigs = type: in vivo; conditions: 10 mg/kg i.v.; for Phototoxicity: number of animals with erythemas/number of animals tested: UVA 90 minutes, 24 h after irradiation; for phototoxicity, in words: UVA
Procedure: Male Hartley guinea pigs were intravenously administered test compounds at a dose of 10 mg/kg, and immediately exposed to UVA on their backs for 90 minutes.

A. calcoaceticus HNR916 = assay: Antibacterial activity, MIC by agar dilution; type: cell-based; conditions: Acinetobacter calcoaceticus, clinically isolated strain, gram -
From the text: (§1) The strains employed were as follows:
(§2) Acinetobacter calcoaceticus (A. calcoaceticus)

A. calcoaceticus HNR904 = assay: Antibacterial activity, MIC by agar dilution; type: cell-based; conditions: Acinetobacter calcoaceticus, clinically isolated strain, gram -
From the text: as §1, §2

A. calcoaceticus HNR939 = assay: Antibacterial activity, MIC by agar dilution; type: cell-based; conditions: Acinetobacter calcoaceticus, clinically isolated strain, gram -
From the text: as §1, §2

[1] = test system: polychromatic erythrocytes (PCEs); assay: Micronucleus test, bone marrow of mice; type: in vivo, BDF 1 mice; conditions: percent of the number of MNPCEs per 1,000 PCEs; 250 mg/kg i.p., 24 h
Procedure: Nine-week-old male BDF 1 mice were used in this test. The test compounds were injected intraperitoneally with a dose of 250 mg/kg. After 24 h mice were sacrificed and the bone marrow of the femur was collected. Bone marrow smears were fixed on the slides with methanol and stained with Giemsa according to the usual method. For each animal, the number of micronucleated polychromatic erythrocytes (MNPCEs) per 1,000 polychromatic erythrocytes (PCEs) was counted under the microscope. Cyclophosphamide was used as a positive control.

E. cloacae HNR1946 = assay: Antibacterial activity, MIC by agar dilution; type: cell-based; conditions: Enterobacter cloacae, clinically isolated strain, gram -
From the text: as §1
(§3) Enterobacter cloacae (E. cloacae)

E. cloacae HNR1941 = assay: Antibacterial activity, MIC by agar dilution; type: cell-based; conditions: Enterobacter cloacae, clinically isolated strain, gram -
From the text: as §1, §3

E. cloacae HNR1939 = assay: Antibacterial activity, MIC by agar dilution; type: cell-based; conditions: Enterobacter cloacae, clinically isolated strain, gram -
From the text: as §1, §3

E. cloacae 963 = assay: Antibacterial activity, MIC by agar dilution; type: cell-based; conditions: Enterobacter cloacae, laboratory standard strain, gram -
From the text: as §1, §3

S. aureus HPC292 = assay: Antibacterial activity, MIC by agar dilution; type: cell-based; conditions: Staphylococcus aureus, clinically isolated strain, gram +
From the text: as §1
(§4) Staphylococcus aureus (S. aureus)

S. aureus HPC308 = assay: Antibacterial activity, MIC by agar dilution; type: cell-based; conditions: Staphylococcus aureus, clinically isolated strain, gram +
From the text: as §1, §4

S. aureus FDA 209P JC-1 = assay: Antibacterial activity, MIC by agar dilution; type: cell-based; conditions: Staphylococcus aureus, FDA209P; laboratory standard strain, gram +
From the text: as §1, §4

S. aureus HPC527 = assay: Antibacterial activity, MIC by agar dilution; type: cell-based; conditions: Staphylococcus aureus, clinically isolated strain, gram +
From the text: as §1, §4

E. faecalis HPC948 = assay: Antibacterial activity, MIC by agar dilution; type: cell-based; conditions: Enterococcus faecalis, clinically isolated strain, gram +
From the text: as §1
(§5) Enterococcus faecalis (E. faecalis)

E. faecalis HPC975 = assay: Antibacterial activity, MIC by agar dilution; type: cell-based; conditions: Enterococcus faecalis, clinically isolated strain, gram +
From the text: as §1, §5

E. faecalis HPC984 = assay: Antibacterial activity, MIC by agar dilution; type: cell-based; conditions: Enterococcus faecalis, clinically isolated strain, gram +
From the text: as §1, §5

[2] = test system: clinically isolated strains (HPC527, HPC308 and HPC292) of S aureus; assay: Comparison with analogous compounds: antibacterial activity (MIC) against clinically isolated strains of S. aureus; type: cell-based, Staphylococcus aureus; conditions: comparison to Tables 7 and 8
Procedure: Minimum inhibitory concentrations (MICs) of test compounds were determined by agar dilution procedure as described in the standard method of the Japan Society of Chemotherapy (Chemotherapy (Tokyo), 29,1, 76 (1981)). The strains employed were as follows:
All the data of the antibacterial activity, chromosomal aberration activity, phototoxicity and inducement of convulsions were obtained from the same tests methods as those described above. Among this, the data of the antibacterial activity shown in Tables 7 and 8 are MICs (minimum inhibitory concentrations) value against clinically isolated strains (HPC527, HPC308 and HPC292) of S aureus which is a representative gram-positive bacteria.

E. coli NIHJ JC-2 = assay: Antibacterial activity, MIC by agar dilution; type: cell-based; conditions: Escherichia coli, NIHJJC2; laboratory standard strain, gram -
From the text: as §1
Escherichia coli (E. coli)

[3] = Tissue distribution after oral administration, HPLC; type: in vivo, Sprague-Dawley rats; conditions: for Kp: po, 5 mg/kg
Procedure: Seven-week-old male Sprague-Dawley rats were used. The test compounds were orally administered at a dose of 5 mg/kg to rats fasted overnight. At intervals of 0.083, 0.25, 0.5, 1, 2, 4, 6, 8, 12 and 24 h after administration, the rats were anesthetized with ether and blood samples were taken from the abdominal aorta. Plasma samples were obtained from the blood samples in the usual way. The lungs and kidneys were removed after collection of blood, and homogenated with 4 ml and 7 ml of 1 M HCl-citrate buffer (pH 4.0), respectively.
The concentration of the test compounds in the biological fluids (plasma and in each tissue tested) was determined by HPLC method. Hydrochloric acid and ether were added to 0.5 ml of plasma or 0.5 g of each tissue homogenate. The mixture was shaken and centrifuged. After the removal of the organic phase, aq. NaOH solution, phosphate buffer (pH 7.0) and chloroform were added to the aqueous phase. The mixture was shaken and centrifuged. The organic phase was then concentrated. The residue was dissolved and subjected to HPLC. The concentration of the test compounds in each biological fluid at Tmax (time of the maximum concentration in plasma) is shown in Table 6.

S. marcescens HNR1767 = assay: Antibacterial activity, MIC by agar dilution; type: cell-based; conditions: Serratia marcescens, clinically isolated strain, gram -
From the text: as §1
(§6) Serratia marcescens (S. marcescens)

S. marcescens IAM 1184 = assay: Antibacterial activity, MIC by agar dilution; type: cell-based; conditions: Serratia marcescens, IAM1184; laboratory standard strain, gram -
From the text: as §1, §6

S. marcescens HNR1544 = assay: Antibacterial activity, MIC by agar dilution; type: cell-based; conditions: Serratia marcescens, clinically isolated strain, gram -
From the text: as §1, §6

S. marcescens HNR1792 = assay: Antibacterial activity, MIC by agar dilution; type: cell-based; conditions: Serratia marcescens, clinically isolated strain, gram -
From the text: as §1, §6

CHL cells [4] = assay: Chromosomal aberration test with a Chinese hamster lung cell line (CHL); type: cell-based
Procedure: The chromosomal aberration test was conducted with a Chinese hamster lung cell line (CHL). 2-(2-Furyl)-3-(5-nitro-2-furyl)acrylamide was used as a positive control. Cells treated with the test compounds were cultured for 6 h at 37° C. in 5% CO2 -humidified air. Following the 6 h treatment the cells were washed. Fresh medium was added to the washed cells and they were cultured for a further 18 h. Colcemide was added to the cultures 2 h before the fixation of chromosome preparation, in order to collect metaphase cells.

K. pneumoniae HNR828 = assay: Antibacterial activity, MIC by agar dilution; type: cell-based; conditions: Klebsiella pneumoniae, clinically isolated strain, gram -
From the text: as §1
(§7) Klebsiella pneumoniae (K. pneumoniae)

K. pneumoniae HNR869 = assay: Antibacterial activity, MIC by agar dilution; type: cell-based; conditions: Klebsiella pneumoniae, clinically isolated strain, gram -
From the text: as §1, §7

K. pneumoniae PCI-602 = assay: Antibacterial activity, MIC by agar dilution; type: cell-based; conditions: Klebsiella pneumoniae, PCI602; laboratory standard strain, gram -
From the text: as §1, §7

K. pneumoniae HNR858 = assay: Antibacterial activity, MIC by agar dilution; type: cell-based; conditions: Klebsiella pneumoniae, clinically isolated strain, gram -
From the text: as §1, §7

CHL cells [5] = conditions: 31th ICAAC, Abstract No. 1507 (1991); cited from earlier work
[6] = times higher than ciprofloxacin, at Tmax

SMILES | Phototoxicity: number of animals with erythemas/number of animals tested (Male Hartley guinea pigs) | MIC (A. calcoaceticus HNR916) [µg/mL] | MIC (A. calcoaceticus HNR904) [µg/mL] | MIC (A. calcoaceticus HNR939) [µg/mL] | Incidence of MNPCEs [1] [%] | MIC (E. cloacae HNR1946) [µg/mL] | MIC (E. cloacae HNR1941) [µg/mL] | MIC (E. cloacae HNR1939) [µg/mL] | MIC (E. cloacae 963) [µg/mL] | MIC (S. aureus HPC292) [µg/mL] | MIC (S. aureus HPC308) [µg/mL] | MIC (S. aureus FDA 209P JC-1) [µg/mL] | MIC (S. aureus HPC527) [µg/mL] | MIC (E. faecalis HPC948) [µg/mL] | MIC (E. faecalis HPC975) [µg/mL] | MIC (E. faecalis HPC984) [µg/mL] | MIC (E. coli NIHJ JC-2) [µg/mL] | MIC (S. marcescens HNR1767) [µg/mL] | MIC (S. marcescens IAM 1184) [µg/mL] | toxicity (chromosomal aberration), in words (CHL cells [4]) | also measured
Cc1c(N2C[C@@H](N)C3(CC3)C2)c(F)c(N)c2c(=O)c(C(=O)O)cn(C3CC3)c12 [Example 10, 5-Amino-7-((S)-7-amino-5-azaspiro[2.4]hept-5-yl)-1-cyclopropyl-6-fluoro-1,4-dihydro-8-methyl-4-oxoquinoline-3-carboxylic acid] | 0/5 | 0.012 (≈ 0.0311 µM) | 1.56 (≈ 4.04 µM) | 0.2 (≈ 0.518 µM) | 0.18 | 0.2 (≈ 0.518 µM) | 3.13 (≈ 8.1 µM) | 0.1 (≈ 0.259 µM) | 0.025 (≈ 0.0647 µM) | 1.56 | 0.39 | 0.025 | 0.025 | 0.39 | 1.56 | 0.1 | 0.012 (≈ 0.0311 µM) | 6.25 (≈ 16.2 µM) | 0.1 (≈ 0.259 µM) | did not show | antibacterial activity compared with reference compound, in words [2]: higher antibacterial activity than the analogous reference compound B; also recorded: excellent antibacterial activity as potent as the analogous reference compound C; also recorded: much higher antibacterial activity than the analogous reference compound I; Tmax ([3]; plasma, rat, 5 mg/kg oral): 15 min; Cmax ([3]; plasma, rat, 5 mg/kg oral, read-out: Concentration in plasma at Tmax): 580 ng/mL; Concentration in kidney at Tmax ([3]; rat, 5 mg/kg oral): 8.5 µg/g; Concentration in lung at Tmax ([3]; rat, 5 mg/kg oral): 4.0 µg/g; Kp ([3]; rat, kidney, read-out: concentration ratio (tissue/plasma), kidney): 15; Kp ([3]; rat, lung, read-out: concentration ratio (tissue/plasma), lung): 6.9; a/b: concentration ratio (tissue/plasma) kidney, Example 10/ciprofloxacin [3, 6]: 4.2; a/b: concentration ratio (tissue/plasma) lung, Example 10/ciprofloxacin [3, 6]: 8.6; a/b: kidney concentration, Example 10/ciprofloxacin [3, 6]: 7.4; a/b: lung concentration, Example 10/ciprofloxacin [3, 6]: 16; MIC (S. marcescens HNR1544): 0.05 µg/mL (≈ 0.129 µM); MIC (S. marcescens HNR1792): 3.13 µg/mL (≈ 8.1 µM); MIC (K. pneumoniae HNR828): 3.13 µg/mL (≈ 8.1 µM); MIC (K. pneumoniae HNR869): 1.56 µg/mL (≈ 4.04 µM); MIC (K. pneumoniae PCI-602): 0.003 µg/mL (≈ 0.00776 µM); MIC (K. pneumoniae HNR858): 0.2 µg/mL (≈ 0.518 µM)
Cc1c(N2CC[C@H](N)C2)c(F)c(N)c2c(=O)c(C(=O)O)cn(C3CC3)c12.Cl [Example 12, 5-Amino-7-((S)-3-amino-1-pyrrolidinyl)-1-cyclopropyl-6-fluoro-1,4-dihydro-8-methyl-4-oxoquinoline-3-carboxylic acid hydrochloride] | 0/5 | 0.05 | 12.5 | 0.78 | 0.16 | 0.2 | 6.25 | 0.2 | 0.025 | 1.56 | 0.78 | 0.025 | 0.025 | 0.39 | 1.56 | 0.1 | 0.025 | 12.5 | 0.1 | did not show | phototoxicity, in words (Male Hartley guinea pigs): did not show; antibacterial activity compared with reference compound, in words ([2]; hydrochloride): much higher antibacterial activity than the analogous reference compound E; also recorded: higher antibacterial activity than the analogous reference compound F; also recorded: much higher antibacterial activity than the analogous reference compound I; MIC (S. marcescens HNR1544): 0.05 µg/mL; MIC (S. marcescens HNR1792): 1.56 µg/mL; MIC (K. pneumoniae HNR828): 3.13 µg/mL; MIC (K. pneumoniae HNR869): 1.56 µg/mL; MIC (K. pneumoniae PCI-602): 0.006 µg/mL; MIC (K. pneumoniae HNR858): 0.2 µg/mL
Cc1c(N2C[C@@H](N)C3(CC3)C2)c(F)cc2c(=O)c(C(=O)O)cn(C3CC3)c12 [Reference Compound C, 7-((S)-7-amino-5-azaspiro[2.4]hept-5-yl)-1-cyclopropyl-6-fluoro-1,4-dihydro-8-methyl-4-oxoquinoline-3-carboxylic acid] |  |  |  |  |  |  |  |  |  |  |  |  |  |  |  |  |  |  |  | observed | phototoxicity, in words (Male Hartley guinea pigs): no phototoxicity; death of guinea pigs (Male Hartley guinea pigs; phototoxicity test): death of one guinea pig out of five; chromosomal aberrational activity, in words (CHL cells [5]): potent chromosomal aberrational activity
